Measurements taken from US20230013669A1, “Antibacterial Treatment Using a Cannabinoid and an Active Agent” (priority 2019, published 2023).
Several values for one entry are separate records, joined by “and”; a condition that tells them apart may be missing. Equal values may be shown once. Read-outs that look alike come from different tables or passages of the source.

Columns and labels:
Format in all cases: cell-based
[1] = tested on: Klebsiella pneumoniae ATCC 700603; assay: Synergy of cannabidiol with cell-wall disrupting agent (CBD MIC in combination, FICI); conditions: for MIC: Klebsiella pneumoniae
Method: Methods were as for Example 1. Cannabidiol was tested in combination with cefotetan.
Methods were as for Example 1. Cannabidiol was tested in combination with aztreonam.
Methods were as for Example 1. Cannabidiol was tested in combination with cefepime.
Methods were as for Example 1. Cannabidiol was tested in combination with octapeptin C4.
Methods were as for Example 1. Cannabidiol was tested in combination with Spero SPR206. The experiments were carried out three times.

[2] = tested on: Escherichia coli ATCC 25922; assay: Synergy assay CBD with PMBN (Example 10); conditions: for FICI: Table 40
Method: (§1) The inoculum was then diluted in CaMHB to give a mid-log phase cultures and 40 μL was added to each well from column 1 to column 18, and column 23. 45 μL of the inoculum was added to each well from column 19 to column 22 to give the final cell density of 5×10^5 CFU/mL. The plates were incubated at 37° C. for 18-20h.
(§2) Optical density was read at 600 nm (OD600) using Gen5 Spectrophotometer. […] Analysis was performed using Microsoft Excel.
(§3) CBD was tested in combination with PMBN in a 14×9 matrix for each. CBD and PMBN were also included on the plate individually (from column 20 and 2) as positive controls and to collect the MIC values.
(§4) CBD was two-fold serial diluted across the wells of a 384-wells plate from row B to O (FIG. 1), while PMBN was two-fold serial diluted across the wells of a 384-wells plate from column 2 to 10 (FIG. 2). The inhibitor controls of each antibiotic/compound were 1:2 serial diluted down the plate at column 19, 20, 21 (respectively A, B and C antibiotic).
(§5) 5 μL of the CBD mother plate were plated vertically intro tested 384-well PS plate (for column 2-10). 5 μL were stamped out horizontally from the PMBN mother plate. Resulting in a final volume of 10 μL in the test plates. 5 μL antibiotic were added to the control column (column 20, 21). Column 23 was the growth control and column 24 was media control.

[3] = tested on: Pseudomonas aeruginosa ATCC 27853; assay: Synergy assay CBD with PMBN (Example 10); conditions: for FICI: Table 40
Method: as §1, §2, §3, §4, §5

[4] = tested on: Klebsiella pneumoniae ATCC 700603; assay: Synergy assay CBD with PMBN (Example 10)
Method: as §1, §2, §3, §4, §5

[5] = tested on: Acinetobacter baumannii ATCC 19606; assay: Synergy assay CBD with PMBN (Example 10); conditions: for FICI: Table 40
Method: as §1, §2, §3, §4, §5

[6] = Example 10, CBD + PMBN, listed as CBD
[7] = Example 10, panel of wild type Gram-negative bacteria
[8] = CBD + PMBN at 1 (μg/mL per Table 39)
[9] = CBD + PMBN at 16, listed as CBD

C=C(C)C1CCC(C)=CC1c1c(O)cc(CCCCC)cc1O (centres unmarked) [Cannabidiol, 2-[3-methyl-6-(1-methylethenyl)-2-cyclohexen-1-yl]-5-pentyl-1,3-benzenediol]
MIC ([1]; ATCC700603, Spero SPR206 at 0.031 μg/mL, 2nd of 3 experiments, read-out: CBD MIC with Spero SPR206): > 256 µg/mL
MIC ([1]; ATCC700603, Spero SPR206 at 0.062 μg/mL, 2nd of 3 experiments, read-out: CBD MIC with Spero SPR206): > 256 µg/mL
MIC ([1]; ATCC700603, Spero SPR206 at 0.25 μg/mL, 1st of 3 experiments, read-out: CBD MIC with Spero SPR206): 0.001 µg/mL
MIC ([1]; ATCC700603, Spero SPR206 at 0.25 μg/mL, 2nd of 3 experiments, read-out: CBD MIC with Spero SPR206): 1 µg/mL
MIC ([1]; ATCC700603, Spero SPR206 at 0.25 μg/mL, 3rd of 3 experiments, read-out: CBD MIC with Spero SPR206): > 256 µg/mL
MIC ([1]; ATCC700603, Spero SPR206 at 0.5 μg/mL, 1st of 3 experiments, read-out: CBD MIC with Spero SPR206): 0.001 µg/mL
MIC ([1]; ATCC700603, Spero SPR206 at 0.5 μg/mL, 3rd of 3 experiments, read-out: CBD MIC with Spero SPR206): > 256 µg/mL
MIC ([1]; ATCC700603, Spero SPR206 at 1 μg/mL, 1st of 3 experiments, read-out: CBD MIC with Spero SPR206): 0.001 µg/mL
MIC ([1]; ATCC700603, Spero SPR206 at 1 μg/mL, 3rd of 3 experiments, read-out: CBD MIC with Spero SPR206): > 256 µg/mL
MIC ([1]; ATCC700603, Spero SPR206 at 2 μg/mL, 1st of 3 experiments, read-out: CBD MIC with Spero SPR206): 0.001 µg/mL
MIC ([1]; ATCC700603, Spero SPR206 at 2 μg/mL, 3rd of 3 experiments, read-out: CBD MIC with Spero SPR206): 1 µg/mL
MIC ([1]; ATCC700603, Spero SPR206 at 4 μg/mL, 1st of 3 experiments, read-out: CBD MIC with Spero SPR206): 0.001 µg/mL
MIC ([1]; ATCC700603, Spero SPR206 at 4 μg/mL, 3rd of 3 experiments, read-out: CBD MIC with Spero SPR206): 0.001 µg/mL
MIC ([1]; ATCC700603, read-out: CBD MIC with Spero SPR206, Spero SPR206 at […], 1st of 3 experiments): 4 µg/mL
MIC ([1]; ATCC700603, read-out: CBD MIC with Spero SPR206, Spero SPR206 at […], 2nd of 3 experiments): 8 µg/mL
CBD MIC with Octapeptin C4 ([1]; Octapeptin C4 at 4 μg/mL, listed as CBD): 0.5 µg/mL
CBD MIC with Spero SPR206 ([1]; Spero SPR206 at 2 μg/mL, 3rd of 3 experiments, listed as CBD): 2 µg/mL
CBD MIC with PMBN (MCC_9298) at concn 1 μg/mL ([2]; Example 10): 64 µg/mL
CBD MIC with PMBN (MCC_9298) at concn 2 μg/mL ([2]; Example 10): 64 µg/mL
CBD MIC with PMBN (MCC_9298) at concn 32 μg/mL ([2]; Example 10): 64 µg/mL
FICI range [2, 6]: 0.28-1.25 and 0.28-1.5
CBD in combination with PMBN: synergy [2, 7]: synergistic activity
FICI [2, 8]: 0.2812
FICI ([2]; CBD + PMBN at 2): 0.3125
FICI [2, 9]: 0.75 and 1.5
FICI ([2]; CBD + PMBN at 32): 1.25
CBD MIC with PMBN (MCC_9298) at concn 1 μg/mL ([3]; Example 10): 64 µg/mL
CBD MIC with PMBN (MCC_9298) at concn 2 μg/mL ([3]; Example 10): 64 µg/mL
CBD MIC with PMBN (MCC_9298) at concn 32 μg/mL ([3]; Example 10): 32 µg/mL
FICI range [3, 6]: 0.28-1.13 and 0.25-1.13
CBD MIC with PMBN (MCC_9298) at concn 4 μg/mL ([3]; Example 10, listed as CBD): 64 µg/mL and 32 µg/mL
CBD MIC with PMBN (MCC_9298) at concn 8 μg/mL ([3]; Example 10, listed as CBD): 64 µg/mL and 32 µg/mL
CBD MIC with PMBN (MCC_9298) at concn 16 μg/mL ([3]; Example 10, listed as CBD): 64 µg/mL and 32 µg/mL
CBD in combination with PMBN: synergy [3, 7]: synergistic activity
FICI [3, 8]: 0.2812
FICI ([3]; CBD + PMBN at 2): 0.3125
FICI ([3]; CBD + PMBN at 4, listed as CBD): 0.375 and 0.25
FICI ([3]; CBD + PMBN at 8, listed as CBD): 0.5 and 0.375
FICI [3, 9]: 0.75 and 0.625
FICI ([3]; CBD + PMBN at 32): 1.125
CBD MIC with PMBN (MCC_9298) at concn 1 μg/mL ([4]; Example 10): >256 µg/mL
CBD MIC with PMBN (MCC_9298) at concn 2 μg/mL ([4]; Example 10): >256 µg/mL
CBD MIC with PMBN (MCC_9298) at concn 32 μg/mL ([4]; Example 10, listed as CBD): 64 µg/mL and 32 µg/mL
CBD in combination with PMBN: synergy [4, 7]: synergistic activity
FICI ([4]; Table 40, CBD + PMBN at 2): 1.0625
CBD MIC with PMBN (MCC_9298) at concn 1 μg/mL ([5]; Example 10): 32 µg/mL
CBD MIC with PMBN (MCC_9298) at concn 2 μg/mL ([5]; Example 10): 32 µg/mL
CBD MIC with PMBN (MCC_9298) at concn 4 μg/mL ([5]; Example 10): 32 µg/mL
CBD MIC with PMBN (MCC_9298) at concn 8 μg/mL ([5]; Example 10): 32 µg/mL
CBD MIC with PMBN (MCC_9298) at concn 16 μg/mL ([5]; Example 10): 32 µg/mL
CBD MIC with PMBN (MCC_9298) at concn 32 μg/mL ([5]; Example 10): 32 µg/mL
FICI range ([5]; Example 10, CBD + PMBN): 0.16-1.13
CBD in combination with PMBN: synergy [5, 7]: synergistic activity
FICI [5, 8]: 0.1562
FICI ([5]; CBD + PMBN at 2): 0.1875
FICI ([5]; CBD + PMBN at 4): 0.25
FICI ([5]; CBD + PMBN at 8): 0.375
FICI ([5]; CBD + PMBN at 16): 0.625
FICI ([5]; CBD + PMBN at 32): 1.125
